Literature values as cited in patent US10485789B2, “Compositions and methods for targeting receptors expressed in the gut” (Sensor Pharmaceuticals, Inc., priority 2014, dated 2019).

Test system: DSS injury model
Details: mice pretreated with antibiotics

O=C(O)c1cccnc1 [niacin]
effect in the DSS injury model: dramatic effect
